The IC50 is the concentration needed to halve the response being measured.

The experiment concerns the target Integrase (Human immunodeficiency virus 1, UniProt Q76353). In words: Inhibition of HIV-1 integrase.

Structures are written as SMILES.

The compound `COc1cc(C=CC(=O)CC(=O)C=Cc2ccc(O)c(OC)c2)ccc1O` had an IC50 of 40 µM.

(Values after BindingDB's records for doi:10.1021/np400148e (University of Eastern Piedmont, 2013).)
